According to patent publication US20160166604A1, “Thiol-Sensitive Positive Inotropes” (priority 2005, published 2016):
“Also recorded” adds a separate entry of the source.

Key:
cAMP = cAMP FRET imaging in neonatal rat cardiomyocytes; type: cell-based; conditions: 1 mM AS, n=23, p=NS
Protocol: Primary cultures of cardiac ventricular myocytes from 1-3 days old Sprague Dawley rats (Charles River Laboratories, Wilmington, Mass.) were prepared as described. Dostal, D. E. et al., Am. J. Physiol., 263, […]-[…] (1992). Cells were transfected with a FRET-based sensor for cAMP (Zaccolo, M. et al., Science, 295, 1711-1715 (2002)) and imaged 48 hrs after transfection. During the experiments, cells were continuously perfused with HEPES buffered Ringer's modified saline (1 mmol/LCaCl2) at room temperature. Cells were imaged on an inverted Olympus IX50 microscope upon excitation at 430 nm. Mongillo, M. et al., Circ. Res., 98, 226-234 (2006). Image analysis was performed by using ImageJ (Rasband, W. S., ImageJ, National Institutes of Health, Bethesda, Md., USA). At each time point, FRET values were measured as the 480 nm/535 nm emission ratio intensity (R) and were normalized to the 480 nm/535 nm value at time 0s (R0). Agents that increase peak Ca^2+ transients coupled to increased sarcomere shortening often do so via a rise in intracellular cAMP and subsequent activation of protein kinase A ([…]. et al., Curr. Med. Chem., 10, 967-981 (2003). To test whether this applied to AS, real-time imaging of cAMP on transfected neonatal rat cardiomyocytes was performed with a cAMP FRET-probe. Zaccolo, M. et al., Science, 295, 1711-1715 (2002). Upon exposure to 1 mM AS, the FRET signal was unchanged (0.3%±0.1%, n=23, p=NS), whereas subsequent application of norepinephrine (10 μM) or phosphodiesterase inhibitor IBMX (100 μM) both increased it by 12% (p<10^-6) (FIG. 2A). Pre-treatment of adult mouse myocytes with the PKA inhibitor […]

[1] = tested on: cardiac myocytes from WT and Gαq overexpressing FVB/N mice; assay: Sarcomere shortening in cardiac myocytes from WT and Gαq overexpressing mice; type: cell-based, mouse; conditions: for increase in sarcomere shortening: Gαq myocytes
Protocol: Cardiac myocytes were isolated from WT and Gαq overexpressing 2-6 month old FVB/N mice, suspended in Tyrode's solution (1 mM calcium) and field stimulated at 0.5 Hz at 23° C. Sarcomere shortening (SS) was assessed by real-time image analysis; data are presented at steady-state (10 minutes drug infusion).

[2] = tested on: isolated rat ventricular myocytes; assay: Whole Ca2+ transients and SR Ca2+ load in isolated rat ventricular myocytes (Indo-1, caffeine); type: cell-based
Protocol: Isolation of ventricular myocytes from rats was carried out as previously described. Bassani, R A. et al., J. Mol. Cell Cardiol., 26, 1335-1347 (1994). The enzyme used for tissue dissociation was Liberase Blendzyme 3 or 4 (13-20 Wuensch Units/Heart) sometimes supplemented with 5-10 Units of Dispase II (both Roche Diagnostics, Indianapolis, Ind.). When the heart became flaccid, left ventricular tissue was cut into small pieces for further incubation (5 to 10 min at 37° C.) in enzyme solution. The tissue was dispersed, filtered, and suspensions rinsed several times before used for experiments. Isolated rat ventricular myocytes were then plated onto superfusion chambers, with the glass bottoms treated with natural mouse laminin (Invitrogen, Carlsbad, Calif.). The standard Tyrode's solution used in all experiments contained (in mM): NaCl 140, KCl 4, MgCl2 1, glucose 10, HEPES 5, and CaCl2 1, pH 7.4. Myocytes were loaded with 6 μM Indo-1/AM for 25 min and subsequently perfused for at least 30 min to allow for deesterfication of the dye. Some cells were pretreated with 0.5 mM AS (in some Caffeine experiments with 1 mM), washed and then loaded with Indo-1/AM. Concentration of the AS stock solution was verified by absorbance at 250 nm. All experiments were done at room temperature (23-25° C.) using field stimulation. Ca^2+-transients were recorded with Clampex 8.0 and data analyzed with Clampfit.
(§1) To further explore potential HNO targets, calcium cycling in adult mouse and rat cardiac myocytes was examined. Cells were first exposed to AS for 5-10 min, then washed and loaded with Indo-1 or Fluo-4 for 20 min. Pretreatment with AS was carried out because the drug reacted with the Ca^2+ indicators (both Fluo-4 and Indo-1) and altered their fluorescent properties. In mice, the calcium transient amplitude assessed by confocal line scan imaging increased by ˜40% over baseline with 0.5 mM AS, (n=27, p<0.001) (FIG. 3A-FIG. 3C), time to peak transient was prolonged (FIG. 3D) while the decay time shortened (FIG. 3E). Basal fluorescence (F0) was unchanged by AS pretreatment (FIG. 3F). Similar results were obtained in rat myocytes (using Indo-1) for Ca^2+ transient amplitude (FIG. 3G and FIG. 3H) and decay time (FIG. 3I). The increase in amplitude was not accompanied by an increase in diastolic Ca^2+ level (ratio 405/485=0.239±0.006 (Con) vs. 0.243±0.008 (AS); n.s.; see also FIG. 3A, FIG. 3F and FIG. 3G). Rapid sustained caffeine (10 mM) application abruptly releases all SR Ca^2+ and subsequent [Ca^2+]i decline is mediated mainly via Na/Ca exchange.

mice cardiomyocytes = assay: Whole Ca2+ transients in isolated mouse myocytes (fluo-4, confocal line scan); type: cell-based
Protocol: Wild type 2-4 month old mice were anesthetized with intraperitoneal pentobarbital sodium (100 mg/kg/ip). Hearts were perfused as previously described. Mongillo, M. et al., Circ. Res., 98, 226-234 (2006). To assess for sarcomere shortening, cells were imaged using field stimulation (Warner instruments) in an inverted fluorescence microscope (Diaphot 200; Nikon, Inc). Sarcomere length was measured by real-time Fourier transform (IonOptix MyoCam, CCCCD100M) and cell twitch amplitude is expressed as a percentage of resting cell length. Twitch kinetics was quantified by measuring the time to peak shortening and the time from peak shortening to 50% relaxation. For whole calcium transient measurements, myocytes were loaded with the Ca^2+ indicator fluo-4/AM (Molecular Probes, 20 μM for 30 min) and Ca^2+ transients were measured under field-stimulation at 0.5 Hz in perfusion solution by confocal laser scanning microscope (LSM510, Carl Zeiss). Digital image analysis used customer-designed programs coded in Interactive Data Language (IDL).
as §1

Question: `[Na+].[Na+].[O-][N+]([O-])=NO` [AS, Angeli's salt] was tested. Which “change of cAMP FRET signal” value (cAMP) did it give?
Answer: Its value is 0.3%±0.1%.

Question: What about the “positive inotropic effect in Gαq myocytes compared with WT cells” value ([1]; AS infusion) of the same compound?
Answer: Its value is “not significantly different”.

Question: And the “increase in sarcomere shortening” value ([1]; AS 250 μM)?
Answer: Its value is 22±11%.

Question: And the “increase in sarcomere shortening” value ([1]; AS 500 μM)?
Answer: The value was 40±11%.

Question: And the “fractional SR Ca2+ release” value ([2]; AS pretreated)?
Answer: The value was “enhanced”.

Question: What about the “relative contribution of NCX to Ca2+ removal” value ([2]; AS pretreated cells, Con 12.4%) of the same compound?
Answer: Its value is 8.7%.

Question: And the “relative contribution of the SR to Ca2+ removal” value ([2]; AS pretreated cells, Con 87.6%)?
Answer: The value was 91.3%.

Question: What about the “diastolic Ca2+ level (ratio 405/485)” value ([2]; AS pretreated rat myocytes, Con 0.239±0.006, n.s.) of the same compound?
Answer: Its value is 0.243±0.008.

Question: What about the “SR Ca2+ content (total SR load, caffeine)” value ([2]; AS pretreated, caffeine 10 mM) of the same compound?
Answer: Its value is “unchanged; also recorded: did not alter”.

Question: What about the “τ of caffeine-induced Ca2+ transient decline (Na/Ca exchange function)” value ([2]; caffeine 10 mM, printed 2.0±0.4 vs. 2.2±0.3, order Con vs. AS assumed) of the same compound?
Answer: The value was 2.2 ± 0.3 s.

Question: What about the “Ca2+ transient decay time” value (mice cardiomyocytes; 0.5 mM AS pretreatment) of the same compound?
Answer: Its value is “shortened”.

Question: And the “time to peak Ca2+ transient” value (mice cardiomyocytes; 0.5 mM AS pretreatment)?
Answer: Its value is “prolonged”.

Question: And the “increase of calcium transient amplitude over baseline” value (mice cardiomyocytes; 0.5 mM AS pretreatment, n=27)?
Answer: Its value is about 40%.

Question: What about the “basal fluorescence (F0)” value (mice cardiomyocytes; AS pretreatment) of the same compound?
Answer: The value was “unchanged”.

Question: What about the “Ca2+ transients” value (mice cardiomyocytes; AS, isolated murine cardiomyocytes (Example 7)) of the same compound?
Answer: The value was “without changes”.
